Laboratory results from ChEMBL document CHEMBL5226286, “The application of isatin-based multicomponent-reactions in the quest for new bioactive and druglike molecules” (Eur J Med Chem, 2021).
Converted amounts (≈) assume the structure as drawn. One block for each compound: values may come before it.

Tests used:
Candida albicans [1] = assay: Antifungal activity against Candida albicans MTCC 227; assay type: functional
Saccharomyces cerevisiae = assay: Antifungal activity against Saccharomyces cerevisiae MTCC 170; assay type: functional
cells = assay type: functional, cell-based; settings: Homo sapiens, HCCC9810
Description: Antiproliferative activity against human HCCC9810 cells

Huh-7 = assay: cells; assay type: functional, cell-based; settings: Homo sapiens
Description: Antiproliferative activity against human Huh-7 cells

[2] = biological target: T1, NAD-dependent protein deacetylase sirtuin-2 (Homo sapiens, UniProt Q8IXJ6); assay: Inhibition of sirtuin 2 (unknown origin)
T1 sequence (Q8IXJ6 whole entry): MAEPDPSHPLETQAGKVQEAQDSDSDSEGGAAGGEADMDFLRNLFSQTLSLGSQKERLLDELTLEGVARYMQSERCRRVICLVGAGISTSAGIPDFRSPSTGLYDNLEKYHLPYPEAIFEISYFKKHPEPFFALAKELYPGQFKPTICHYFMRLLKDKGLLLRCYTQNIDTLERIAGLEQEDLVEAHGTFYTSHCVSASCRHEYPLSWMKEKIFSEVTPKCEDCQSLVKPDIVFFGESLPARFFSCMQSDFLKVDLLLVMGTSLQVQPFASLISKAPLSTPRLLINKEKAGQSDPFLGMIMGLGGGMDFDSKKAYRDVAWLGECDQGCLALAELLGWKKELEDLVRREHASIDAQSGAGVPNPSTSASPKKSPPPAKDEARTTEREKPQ

Leishmania major = assay: Antileishmanial activity against Leishmania major promastigotes incubated for 72 hrs by micrscopic analysis; assay type: functional
Pseudomonas aeruginosa [3] = assay: Antibacterial activity against Pseudomonas aeruginosa ATCC 27853; assay type: functional
Pseudomonas aeruginosa [4] = assay: Antibacterial activity against Pseudomonas aeruginosa No.010; assay type: functional
Pseudomonas aeruginosa [5] = assay: Antibacterial activity against multidrug resistant Pseudomonas aeruginosa 025; assay type: functional
Pseudomonas aeruginosa [6] = assay: Antibacterial activity against multidrug resistant Pseudomonas aeruginosa 034; assay type: functional
PC-3 = assay: Antiproliferative activity against human PC-3 cells; assay type: functional, cell-based
K562 = assay: Antiproliferative activity against human K562 cells; assay type: functional, cell-based
A549 [7] = assay: Antiproliferative activity against human A549 cells; assay type: functional, cell-based
SK-N-SH = assay: Antiproliferative activity against human SK-N-SH cells by MTT reduction assay; assay type: functional, cell-based
HepG2 [8] = assay: Antiproliferative activity against human HepG2 cells by MTT reduction assay; assay type: functional, cell-based
HCT-116 = assay: Cytotoxicity against human HCT-116 cells; assay type: functional, cell-based
MDA-MB-435 = assay: Antiproliferative activity against human MDA-MB-435 cells; assay type: functional, cell-based
HeLa [9] = assay: Growth inhibition of human HeLa cells at 20 micromol relative to control; assay type: functional; settings: dose 20 µmol
HepG2 [10] = assay: Growth inhibition of human HepG2 cells at 20 micromol relative to control; assay type: functional; settings: dose 20 µmol
MDA-MB-231 = assay: Growth inhibition of human MDA-MB-231 cells at 20 micromol relative to control; assay type: functional; settings: dose 20 µmol
DU-145 = assay: Cytotoxicity against human DU-145 cells incubated for 48 hrs by MTT assay; assay type: functional, cell-based; settings: DU-145, 48 h
A549 [11] = assay: Cytotoxicity against human A549 cells; assay type: functional, cell-based
MCF7 [12] = assay: Cytotoxicity against human MCF7 cells; assay type: functional, cell-based
HeLa [13] = assay: Cytotoxicity against human HeLa cells; assay type: functional, cell-based
Staphylococcus aureus [14] = assay: Antibacterial activity against Staphylococcus aureus by agar well diffusion method; assay type: functional
Bacillus subtilis [15] = assay: Antibacterial activity against Bacillus subtilis by agar well diffusion method; assay type: functional
Escherichia coli [16] = assay: Antibacterial activity against Escherichia coli by agar well diffusion method; assay type: functional
[17] = Antiproliferative activity against human U87 cells; assay type: functional, cell-based, U-87MG ATCC; settings: U-87 MG
Candida albicans [18] = assay: Antifungal activity against Candida albicans; assay type: functional
Candida tropicalis = assay: Antifungal activity against Candida tropicalis; assay type: functional
Nakaseomyces glabratus = assay: Antifungal activity against Candida glabrata; assay type: functional
Aspergillus fumigatus [19] = assay: Antifungal activity against Aspergillus fumigatus RCMB 02568; assay type: functional
[20] = test system: Syncephalastrum racemosum; assay: Antifungal activity against Syncephalastrum racemosum RCMB 05922; assay type: functional
Geotrichum candidum [21] = assay: Antifungal activity against Geotrichum candidum RCMB 05097; assay type: functional
Candida albicans [22] = assay: Antifungal activity against Candida albicans RCMB 05036; assay type: functional
Aspergillus fumigatus [23] = assay: Antifungal activity against Aspergillus fumigatus RCMB 02568 assessed as zone of inhibition; assay type: functional
[24] = test system: Syncephalastrum racemosum; assay: Antifungal activity against Syncephalastrum racemosum RCMB 05922 assessed as zone of inhibition; assay type: functional
Geotrichum candidum [25] = assay: Antifungal activity against Geotrichum candidum RCMB 05097 assessed as zone of inhibition; assay type: functional
Candida albicans [26] = assay: Antifungal activity against Candida albicans RCMB 05036 assessed as zone of inhibition; assay type: functional
Bacillus subtilis [27] = assay: Antibacterial activity against Bacillus subtilis; assay type: functional
Staphylococcus aureus [28] = assay: microbe, parasite or virus in culture
Escherichia coli [29] = assay: microbe, parasite or virus in culture
A549 [30] = assay: Antiproliferative activity against human A549 cells by MTT reduction assay; assay type: functional, cell-based
HeLa [31] = assay: Cytotoxicity against human HeLa cells incubated for 24 hrs by MTT reduction assay; assay type: functional, cell-based
MCF7 [32] = assay: Antiproliferative activity against human MCF7 cells by MTT reduction assay; assay type: functional, cell-based
Tobacco mosaic virus [33] = assay: Antiviral activity against Tobacco mosaic virus assessed as inactivation effect relative to control; assay type: functional
Tobacco mosaic virus [34] = assay: Antiviral activity against Tobacco mosaic virus assessed as curative effect relative to control; assay type: functional
Tobacco mosaic virus [35] = assay: Antiviral activity against Tobacco mosaic virus assessed as protection effect relative to control; assay type: functional

MIC (Candida albicans [1]): 128 µg/mL (≈ 259 µM)
MIC (Saccharomyces cerevisiae): 64 µg/mL (≈ 129 µM)
Compound: COc1ccc(-n2cc(CN3C(=O)C4(C(C#N)=C(N)OC5=C4C(=O)CCC5)c4ccccc43)nn2)cc1 (stereo not given)

IC50 (cells): > 10 µM
IC50 (Huh-7): 7.1 µM
Compound: CNC(=O)c1cc(Oc2ccc(NC(=O)Nc3ccc(Cl)c(C(F)(F)F)c3)cc2)ccn1 [SORAFENIB]

Compound: CCOC(=O)C1=C(N)Oc2c(c(=O)oc3cc(Cl)ccc23)C12C(=O)Nc1ccc(C)cc12 (stereo not given)
IC50 [2]: 118 µM

MIC (Leishmania major): 5.22 µM (≈ 1.78 µg/mL)
Compound: N=C(N)c1ccc(OCCCCCOc2ccc(C(=N)N)cc2)cc1 [PENTAMIDINE]

Compound: CCn1cc(C(=O)O)c(=O)c2cc(F)c(N3CCNCC3)cc21 [NORFLOXACIN]
MIC (Pseudomonas aeruginosa [3]): 2 µg/mL (≈ 6.26 µM)
MIC (Pseudomonas aeruginosa [4]): 2 µg/mL (≈ 6.26 µM)
MIC (Pseudomonas aeruginosa [5]): > 64 µg/mL
MIC (Pseudomonas aeruginosa [6]): > 64 µg/mL

IC50 (PC-3): 51.6 µM
IC50 (K562): 25 µM
IC50 (A549 [7]): 39.7 µM
Compound: Cc1noc([C@@H]2[C@H]3CCCN3[C@]3(C(=O)N(C)c4ccc(F)cc43)[C@@]23C(=O)N(C)c2ccccc23)c1[N+](=O)[O-]

IC50 (SK-N-SH): 6.3 µM
IC50 (HepG2 [8]): 5.4 µM
IC50 (MDA-MB-435): 0.09 µM
Compound: COc1cccc2c1C(=O)c1c(O)c3c(c(O)c1C2=O)C[C@@](O)(C(=O)CO)C[C@@H]3O[C@H]1C[C@H](N)[C@H](O)[C@H](C)O1 [DOXORUBICIN]
IC50 (HCT-116): 2.4 µM
growth inhibition (GI) (HeLa [9]): 76.1%
growth inhibition (GI) (HepG2 [10]): 79.1%
growth inhibition (GI) (MDA-MB-231): 76%
IC50 (DU-145): 1.8 µM

Compound: CCOC(=O)C1=C(C(=O)OCC)C2(NC1CC(C)C)C(=O)Nc1ccccc12 (stereo not given)
IC50 (A549 [11]): 4.5 µM
IC50 (MCF7 [12]): 5 µM
IC50 (HeLa [13]): > 50 µM

MIC (Staphylococcus aureus [14]): 32 µg/mL (≈ 61.1 µM)
MIC (Bacillus subtilis [15]): 32 µg/mL (≈ 61.1 µM)
MIC (Escherichia coli [16]): 128 µg/mL (≈ 244 µM)
Compound: O=C1CCCC2=C1C1(C(=O)N2c2ccc(Cl)cc2)C2=C(Nc3ccc([N+](=O)[O-])cc31)c1ccccc1C2=O (stereo not given)

Compound: CC1(C)CC(=O)C2=C(C1)OC(N)=C(C#N)C21C(=O)N(CCCCCCCCCCBr)c2ccccc21 (stereo not given)
IC50 [17]: 2.5 µM

MIC (Candida albicans [1]): 128 µg/mL (≈ 245 µM)
MIC (Saccharomyces cerevisiae): 64 µg/mL (≈ 122 µM)
Compound: COc1ccc(-n2cc(CN3C(=O)C4(C(C#N)=C(N)OC5=C4C(=O)CC(C)(C)C5)c4ccccc43)nn2)cc1 (stereo not given)

Compound: C[C@@H]1[C@H](O)[C@@H](C)/C=C/C=C/C=C/C=C/C=C/C=C/C=C/[C@H](O[C@@H]2O[C@H](C)[C@@H](O)[C@H](N)[C@@H]2O)C[C@@H]2O[C@](O)(C[C@@H](O)C[C@@H](O)[C@H](O)CC[C@@H](O)C[C@@H](O)CC(=O)O[C@H]1C)C[C@H](O)[C@H]2C(=O)O [AMPHOTERICIN B]
MIC (Candida albicans [18]): 12.5 µg/mL (≈ 13.5 µM)
MIC (Candida tropicalis): 12.5 µg/mL (≈ 13.5 µM)
MIC (Nakaseomyces glabratus): 12.5 µg/mL (≈ 13.5 µM)
MIC (Candida albicans [1]): 100 µg/mL (≈ 108 µM)
MIC (Saccharomyces cerevisiae): 100 µg/mL (≈ 108 µM)
MIC (Aspergillus fumigatus [19]): 0.015 µg/mL (≈ 0.0162 µM)
MIC [20]: 1.95 µg/mL (≈ 2.11 µM)
MIC (Geotrichum candidum [21]): 0.015 µg/mL (≈ 0.0162 µM)
MIC (Candida albicans [22]): 0.06 µg/mL (≈ 0.0649 µM)
diameter of the inhibition zone (DIZ) (Aspergillus fumigatus [23]): 23 mm
diameter of the inhibition zone (DIZ) [24]: 22.1 mm
diameter of the inhibition zone (DIZ) (Geotrichum candidum [25]): 29 mm
diameter of the inhibition zone (DIZ) (Candida albicans [26]): 26 mm
MIC (Leishmania major): 0.49 µM (≈ 0.453 µg/mL)

Compound: CCOC(=O)C1=C(N)Oc2cc(C)oc(=O)c2C12C(=O)Nc1ccc(Br)cc12 (stereo not given)
IC50 [2]: 124 µM

Compound: O=NN(CCCl)C(=O)NCCCl [CARMUSTINE]
IC50 [17]: 3.9 µM

Compound: O=C(N[C@H](CO)[C@H](O)c1ccc([N+](=O)[O-])cc1)C(Cl)Cl [CHLORAMPHENICOL]
MIC (Bacillus subtilis [27]): 4 µg/mL (≈ 12.4 µM)
MIC (Staphylococcus aureus [28]): 8 µg/mL (≈ 24.8 µM)
MIC (Escherichia coli [29]): 4 µg/mL (≈ 12.4 µM)

IC50 (A549 [30]): 15.9 µM
IC50 (SK-N-SH): 5 µM
IC50 (HepG2 [8]): 8.7 µM
IC50 (MCF7 [32]): 8.3 µM
Compound: Cc1cc2c(cc1C)C(Cl)=C(C1C3CCCN3C3(C(=O)Nc4ccc(I)cc43)C1C(=O)c1ccccc1)CCC2 (stereo not given)
IC50 (HeLa [31]): 3.8 µM

Compound: CN1C[C@@H](c2ccccc2)[C@@]2(Oc3cc(O)ccc3C2=O)[C@@]12C(=O)N(Cc1ccccc1)c1ccccc12
Activity (Tobacco mosaic virus [33]): 57.1%
Activity (Tobacco mosaic virus [34]): 52.3%
Activity (Tobacco mosaic virus [35]): 50.9%

Compound: COc1ccc([C@@H]2CN(C)[C@]3(C(=O)N(C)c4ccccc43)[C@]23Oc2cc(O)ccc2C3=O)cc1
Activity (Tobacco mosaic virus [33]): 55.1%
Activity (Tobacco mosaic virus [34]): 47.3%
Activity (Tobacco mosaic virus [35]): 51.2%

IC50 (A549 [30]): 5.6 µM
IC50 (SK-N-SH): 11 µM
IC50 (HepG2 [8]): 20 µM
IC50 (MCF7 [32]): 7.3 µM
Compound: Cc1cc2c(cc1C)C(Cl)=C(C1C3CCCN3C3(C(=O)Nc4ccc([N+](=O)[O-])cc43)C1C(=O)c1ccccc1)CCC2 (stereo not given)
IC50 (HeLa [31]): 3.8 µM
